US20030228672A1, “Sorbitol dehydrogenases of ketogulonigenium species, genes and methods of use thereof” (priority 2002, published 2003)

Key:
[1] = system: purified SDH of K. robustum ADM X6L; assay: Substrate specificity of purified SDH, PMS-DCIP method; format: biochemical, Ketogulonigenium robustum ADM X6L; settings: 1-Propanol = 100
Procedure: (§1) The dehydrogenase enzyme activity was assayed spectrophotometrically using 2,6-dichlorophenol indophenol (DCIP) as an artificial electron acceptor and phenazine methosulphate (PMS) as an electron mediator. The reaction mixture contained 50 mM Tris·HCl buffer (pH 8.0), 10 mM MgCl2, 5 mM CaCl2, 5 mM KCN, 0.1 mM PMS, 0.12 mM DCIP, a substrate as D-sorbitol (250 mM), L-sorbose (250 mM) or glyoxal (50 mM) and enzyme solution in a total volumn of 1.0 ml. The rate of decrease in absorbance at 522 nm was determined. One unit of enzyme activity was defined as the amount of enzyme catalyzing reduction of 1 μmol of DCIP per minute.
(§2) First, the periplasmic proteins from the cells of K. robustum ADM X6L and Ketogulonigenium sp. ADM 291-19 obtained in Step 1 of Example 1 were prepared by osmotic shock fractionation as described in Step 3 of Example 1. About 50 ml of osmotic shock fluid containing periplasmic proteins was loaded onto a DEAE-TSK 650 (S) (Merck) column (2.5×15 cm) previously equilibrated with 10 mM Tris·HCl buffer (pH 8.0). The column was first washed with 80 ml of 10 mM Tris·HCl buffer (pH 8.0) containing 0.1 M NaCl, followed by a gradient elution with 600 ml of the same buffer containing 0.1-0.5 M NaCl. Fractions containing 5 ml of eluant were collected and assayed for the SDH enzyme activities with D-sorbitol, L-sorbose and glyoxal as substrate. […] At about 0.15 M NaCl, eluted red fractions that probably contained cytochrome c.
(§3) Active fractions eluted from DEAE column were pooled and further purified by gel filtration column chromatography. The active fractions were concentrated by about 20 fold with ultrafiltration in Centricon 30 (Amicon). The concentrate was loaded onto Superose 12 (Pharmacia) and eluted isocratically with 50 mM sodium phosphate buffer (pH 7.0) containing 0.15 M NaCl.
(§4) The purified enzymes were active toward D-sorbitol, L-sorbose and glyoxal.

[2] = system: purified SDH of Ketogulonigenium sp. ADM 291-19; assay: as above; format: biochemical; settings: 1-Propanol = 100
Procedure: The dehydrogenase enzyme activity was assayed spectrophotometrically using 2,6-dichlorophenol indophenol (DCIP) as an artificial electron acceptor and phenazine methosulphate (PMS) as an electron mediator. […] The rate of decrease in absorbance at 522 nm was determined. One unit of enzyme activity was defined as the amount of enzyme catalyzing reduction of 1 μmol of DCIP per minute.
as §2, §3, §4

SDH = SDH activities in osmotic shock fractions, PMS-DCIP method; format: biochemical
Procedure: For more detailed localization study, periplasmic fraction was enriched by the method of osmotic shock (Neu, H. C. and Heppel, L. A., J. Biol. Chem., 240:3685 (1965)). Wet cells were resuspended at about 0.1 g/ml in 20% sucrose-0.03 M Tris·HCl buffer (pH 8.0) at room temperature. Di-sodium EDTA was added to 1 mM and the flask was shaken at 180 rpm at room temperature for 10 min. After centrifugation at 16,000 g for 20 min at 4° C., the supernatant was removed and the pellet was rapidly mixed with cold distilled water of the same volume as the original cell suspension and shaken in ice bucket in a shaker for 10 min. The mixture was centrifuged again to obtain the supernatant called “osmotic shock fluid”. The pellet was sonicated in the same buffer, centrifuged and the supernatant was obtained as “pellet sonicate”.
as §1
For further localization of the enzymes to periplasm or cytoplasm, periplasm was enriched by osmotic shock method as described in Step 3 of Example 1. In this method, the Tris-Sucrose wash and the osmotic shock fluid represent the periplasmic fraction and the pellet sonicate represents the cytoplasm and the cytoplasmic membrane. […] The remaining activity in pellet sonicate could be due to the incomplete release of periplasm by osmotic shock. Typical enzyme activity assay for SDH and β-galactosidase for fractions obtained by osmotic shock fractionation is shown in Table 3.

[3] = system: dehydrogenase enzyme activity (SDH) of K. robustum ADM X6L; assay: Enzyme activity in cellular fractions, Ferric-Dupanol method (localization); format: biochemical, Ketogulonigenium robustum ADM X6L
Procedure: (§5) Cells were harvested by centrifugation at 12,000 g for 10 min, washed once with 10 mM Tris·HCl buffer (pH 8.0) and disrupted by sonication in a Branson Sonifier 450 for 15 min at 50% duty cycle in ice. The homogenate thus prepared was centrifuged at 12,000 g for 5 min to remove the cell debris. The resulting supernatant was centrifuged at 100,000 g for 90 min to get the supernatant as soluble fraction and the precipitate as crude membrane fraction. The crude membrane fraction was solubilized with 1.5% n-octyl glucoside by stirring for 2 hours at 4° C. The resultant suspension was centrifuged at 12,000 g for 10 min to give a supernatant, designated as solubilized membrane fraction.
(§6) Enzyme activity was determined also by the Ferric-Dupanol method (Wood, W. A. et al., Meth. Enzymol., 5, 287 (1962)). The enzyme was preincubated for 5 min at 25° C. The reaction was started by addition of 10 mM (final conc.) potassium ferricyanide and 250 mM (final conc.) D-sorbitol, L-sorbose, or glyoxal. After an appropriate time, the reaction was stopped by adding the ferric sulfate-Dupanol solution (Fe2(SO4)3.nH2O 5 g/l, Dupanol (sodium lauryl sulfate) 3 g/l and 85% phosphoric acid 95 ml/l) and the absorbance of the Prussian color developed was determined at 660 nm in a spectrophotometer.
(§7) Enzyme activities towards D-sorbitol, L-sorbose and glyoxal in different cellular fractions were determined for enzyme localization in K. robustum ADM X6L and Ketogulonigenium sp. ADM 291-19. In both cases, most of the enzyme activity detected in crude cell extract was found in the soluble fraction and the activity in solubilized membrane fraction was negligible when assayed with Ferric-Dupanol method.

purified SDH enzymes = assay: Activity of the purified SDH enzymes toward substrates; format: biochemical, K. robustum ADM X6L and Ketogulonigenium sp. ADM 291-19; settings: purified SDH enzymes of both strains
Procedure: as §2, §3, §4

[4] = system: dehydrogenase enzyme activity (SDH) of Ketogulonigenium sp. ADM 291-19; assay: Enzyme activity in cellular fractions, Ferric-Dupanol method (localization); format: biochemical
Procedure: as §5, §6, §7

[5] = system: K. robustum ADM X6L transformants; assay: Bioconversion of D-sorbitol by transformants, HPLC of culture supernatant; format: cell-based, Ketogulonigenium robustum ADM X6L; settings: for improvement of L-sorbose production from D-sorbitol upon overexpression: flask scale experiment, versus pXH2 control; for L-sorbose production from D-sorbitol upon overexpression (in words): flask scale experiments
Procedure: For expression of the three SDH genes in K. robustum strains, the genes with their own promoters were subcloned into the vector, pXH2/K5. These plasmids were transformed into the strains, K. robustum ADM X6L and 86-96 (NRRL B-21630), by electroporation. In this case, gene dosage effect may be expected due to the apparent high copy number of the plasmid pXH2/K5. The transformants were analyzed by HPLC for improved conversion activity upon overexpression of each SDH gene using D-sorbitol and L-sorbose as substrate.
The effect of overexpression of the three SDH genes in bioconversion activity was analyzed by HPLC analysis of the product profile of the culture supernatant of transformants in a medium containing D-sorbitol or L-sorbose as substrate. The transformants were cultivated overnight in RM medium containing 20 μg/ml of Kanamycin. This overnight culture was used to inoculate the 25 ml RM medium (supplemented with 20 μg/ml of Kanamycin) containing 20 g/l of D-sorbitol or 20 g/l of L-sorbose as substrate instead of mannitol. The culture supernatant samples were taken in a 12-hour interval and were analyzed by HPLC (Gilson HPLC with RI detector (ERC-7515A, ERC Inc.)) equipped with Asted XL automatic sample injector. Samples were loaded on two 2 mm×300 mm×7.8 mm Aminex HPX-87H columns (BioRad) arranged in series to provide a total column length of 600 mm. The column was run at 50° C. at a flow rate of 0.5 ml/min. The peaks were identified and the concentration was determined by comparison with those of the standards using glycerol as internal standard.
K. robustum ADM X6L transformants harboring the pXSDH1, pXSDH2 or pXSDH3 were cultivated with D-sorbitol or L-sorbose as substrate. HPLC analysis of the products from D-sorbitol (Table 10) or L-sorbose (Table 11) is shown below. A transformant harboring pXH2 served as control.

## CCCO [1-Propanol]
[1]; substrate 50 mM
  % relative activity, ADM X6L: 100%
[2]; substrate 50 mM
  % relative activity, ADM291-19: 100%

## O=C(CO)[C@@H](O)[C@H](O)[C@H](O)CO [D-Fructose]
[1]; substrate 250 mM
  % relative activity, ADM X6L: 8.0%
[2]; substrate 250 mM
  % relative activity, ADM291-19: 11.7%

## O=C(O)[C@H](O)[C@@H](O)[C@H](O)[C@H](O)CO [D-Gluconate]
[1]; substrate 250 mM
  % relative activity, ADM X6L: 30.6%
[2]; substrate 250 mM
  % relative activity, ADM291-19: 20.0%

## O=C[C@H](O)[C@@H](O)[C@H](O)[C@H](O)CO [D-Glucose]
[1]; substrate 250 mM
  % relative activity, ADM X6L: 27.6%
[2]; substrate 250 mM
  % relative activity, ADM291-19: 20.0%

## OC[C@@H](O)[C@@H](O)[C@H](O)[C@H](O)CO [D-Mannitol]
[1]; substrate 100 mM
  % relative activity, ADM X6L: 26.6%
[2]; substrate 100 mM
  % relative activity, ADM291-19: 0%

## OC[C@@H](O)[C@@H](O)[C@H](O)[C@@H](O)CO [D-sorbitol]
[1]; substrate 250 mM
  % relative activity, ADM X6L: 12.6%
SDH; Osmotic Shock Fluid (periplasmic fraction)
  SDH activity, Osmotic Shock Fluid: 0.45 ΔOD/min/50 μl enzyme
SDH; Pellet Sonicate (cytoplasm and cytoplasmic membrane)
  SDH activity, Pellet Sonicate: 0.68 ΔOD/min/50 μl enzyme
SDH; Tris-Sucrose Wash (periplasmic fraction)
  SDH activity, Tris-Sucrose Wash: 0.31 ΔOD/min/50 μl enzyme
[3]; Cell Free Extract
  enzyme activity, Cell Free Extract: 0.92 ΔOD/min/4 μl enzyme
[3]; Membrane Fraction
  enzyme activity, Membrane Fraction: 0.01 ΔOD/min/4 μl enzyme
[3]; Soluble Fraction
  enzyme activity, Soluble Fraction: 0.90 ΔOD/min/4 μl enzyme
Purified SDH enzymes
  activity of the purified enzymes toward the substrate (in words): active
[4]; Cell Free Extract
  enzyme activity, Cell Free Extract: 0.66 ΔOD/min/2 μl enzyme
[4]; Membrane Fraction
  enzyme activity, Membrane Fraction: 0.00 ΔOD/min/2 μl enzyme
[4]; Soluble Fraction
  enzyme activity, Soluble Fraction: 0.65 ΔOD/min/2 μl enzyme
[2]; substrate 250 mM
  % relative activity, ADM291-19: 12.4%

## CCO [Ethanol]
[1]; substrate 50 mM
  % relative activity, ADM X6L: 20.0%
[2]; substrate 50 mM
  % relative activity, ADM291-19: 38.0%

## OCC(O)CO [Glycerol]
[1]; substrate 250 mM
  % relative activity, ADM X6L: 56.5%
[2]; substrate 250 mM
  % relative activity, ADM291-19: 32.5%

B1: SDH3: sorbitol dehydrogenase of K. robustum ADM 86-96, 580 amino acids (SEQ ID NO:8) (protein, listed as Ketogulonigenium sp.)
chain: MRPTTLLRTSAAVLLLGPIPAFAQVTPITDELLANPPAGEWINYGRNQENYRHSPLEQITTDNVGQLQLVWARGMEAGAVQVTPMIHDGVMYLANPGDVIQAIDAKTGDLMWEHRRQLPPVASLNGQGDRKRGVALYGTNLYFTSWDNHLVALDMATGQVVFDVERGSGDDGLTSNTSGPIVANGVIVAGSTCQYSPYGCFVSGHDPASGEELWRNYFIPQAGEEGDETWGNDFESRWMTGVWGQLTYDPVTNLVHYGSTGVGPASETQRGTPGGTLYGTNTRFAVRPDTGEIVWRHQTLPRDNWDQECTFEMMVANVDVQPAADMDGVQAINPNATTGERRVLTGIPCKTGTMWQFDAETGEFLWARDTNYQNLIASIDETGLVTVNEDSVLTQLDTDYDICPTFLGGRDWPSAALNPDSGIYFIPLNNACVDIMAVDQEFSALDVYNTSASYKLAPGFENMGRIDAIDISTGKTLWSAERLASNYSPVLSTAGGVLFNGGTDRYLRALSQETGETLWQTRLASVATGQAISYEIDGTQYVAIAGGGSTYGTNQNRALSEAIDSTTIGNAVYVFALPQQ
[5]
  improvement of L-sorbose production from D-sorbitol upon overexpression: ~3 times
  L-sorbose production from D-sorbitol upon overexpression (in words): significantly improved

B2: SDH1: sorbitol dehydrogenase of K. robustum ADM 86-96, 578 amino acids (SEQ ID NO:5) (protein, listed as Ketogulonigenium sp.)
chain: MKSNSLLLASVAAVAFFAVPAFADVTPVTDELLANPPAGEWISYGRNQENYRHSPLNQITPDNVGQLQLVWARGMNPGVVQVTPLIHDGVMYLANPGDIIQAIDAKTGDLIWEHRRQLPETSTLSSLGDRKRGIALYGTNVYFVSWDNHMVALDAASGQVVFDVDRGQGDERVSNSSGPIVANGVIVAGSTCQYSPFGCFVSGHDASTGEELWRNYFIPQAGEEGDETWGNDYEARWMTGVWGQITYDPTTNLVFYGSSAVGPASEVQRGTPGGTLYGTNTRFAVRPDTGEVVWRHQTLPRDNWDQECTFEMMVANVDVQPAADMDGVQAINPNAATGERRVLTGVPCKTGTMWQFDAETGEFLWARDTNYQNMISSIDETGLVTVNEDIILKDLDTDYRICPTFLGGRDWPSASLNPDSGIYFIPLNNACADLAAVDQEFTAMDVYNTSATYLLAPEKENMGRIDAIDISTGKTLWSVERLASNYSPVLSTAGGVLFNGGSDRYFRALSEETGETLWQTRLATVASGQAISYELDGVQYVAIAGGGNTYGTNLNSNIGATIDSTSIGNAVYVFALPQ
[5]
  improvement of L-sorbose production from D-sorbitol upon overexpression: ~2 times
  L-sorbose production from D-sorbitol upon overexpression (in words): significantly improved
